Measured values: US20250115597A1, “TYK2 INHIBITORS AND COMPOSITIONS AND METHODS THEREOF” (LYNK PHARMACEUTICALS CO. LTD., priority 2021, published 2025)
Like-named read-outs stand apart in the source and are kept apart here.

Experiments:
[1] = biological target: T1, Ba/F3-FL-TYK2-P760L cells (Homo sapiens, UniProt P29597, P760L, cells depend on it); experiment: Anti-proliferative assay, Ba/F3-FL-TYK2-P760L cells (Cell-Titer Glo); assay type: cell-based; conditions: 72 h, read-out: BaF3-FL-T2P760L IC50
T1 construct: BaF3-FL-T2P760L (nM)
T1 sequence (P29597 whole entry P760L): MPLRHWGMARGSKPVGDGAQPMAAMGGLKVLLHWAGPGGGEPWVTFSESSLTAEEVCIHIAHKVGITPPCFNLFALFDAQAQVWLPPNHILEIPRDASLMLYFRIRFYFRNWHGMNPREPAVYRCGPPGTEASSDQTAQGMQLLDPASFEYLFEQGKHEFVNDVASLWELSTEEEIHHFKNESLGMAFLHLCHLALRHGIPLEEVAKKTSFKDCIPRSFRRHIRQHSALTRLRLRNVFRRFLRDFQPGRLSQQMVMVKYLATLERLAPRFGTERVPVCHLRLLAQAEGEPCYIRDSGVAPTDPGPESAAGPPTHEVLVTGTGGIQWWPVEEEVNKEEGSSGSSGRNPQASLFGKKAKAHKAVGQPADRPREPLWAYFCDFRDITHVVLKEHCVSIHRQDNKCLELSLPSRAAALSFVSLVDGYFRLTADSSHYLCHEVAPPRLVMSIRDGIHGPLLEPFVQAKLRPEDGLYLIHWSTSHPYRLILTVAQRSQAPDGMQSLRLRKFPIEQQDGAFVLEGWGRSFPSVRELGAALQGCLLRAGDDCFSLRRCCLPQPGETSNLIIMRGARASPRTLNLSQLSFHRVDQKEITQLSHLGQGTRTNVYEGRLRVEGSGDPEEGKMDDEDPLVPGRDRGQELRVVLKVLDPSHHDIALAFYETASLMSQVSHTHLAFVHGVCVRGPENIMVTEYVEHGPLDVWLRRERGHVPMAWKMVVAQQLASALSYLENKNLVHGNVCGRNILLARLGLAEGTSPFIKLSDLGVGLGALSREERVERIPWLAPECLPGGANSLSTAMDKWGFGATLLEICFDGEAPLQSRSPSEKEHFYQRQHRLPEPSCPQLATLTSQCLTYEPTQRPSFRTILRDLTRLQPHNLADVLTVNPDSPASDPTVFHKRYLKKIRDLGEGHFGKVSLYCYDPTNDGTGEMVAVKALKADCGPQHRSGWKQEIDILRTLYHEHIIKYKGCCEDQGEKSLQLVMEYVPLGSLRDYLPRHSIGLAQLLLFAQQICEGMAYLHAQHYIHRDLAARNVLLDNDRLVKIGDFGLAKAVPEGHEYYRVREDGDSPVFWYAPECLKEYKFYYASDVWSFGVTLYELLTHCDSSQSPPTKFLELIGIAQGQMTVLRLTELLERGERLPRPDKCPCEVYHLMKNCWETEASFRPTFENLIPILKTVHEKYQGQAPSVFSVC
Method in brief: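 Compound exposure ran 72 h at 37 °C in 5% CO2 across nine 3-fold concentrations from a 20 μM top dose, added 24 h after seeding 2000 cells/well.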

JAK2 = biological target: T2, JAK2 (Homo sapiens, UniProt O60674); experiment: JAK2 kinase activity, microfluidic assay (Caliper EZ Reader II); assay type: biochemical; conditions: JAK2 0.125 nM, 1 mM ATP
T2 construct: purchased Carna Biosciences
T2 sequence (O60674 whole entry): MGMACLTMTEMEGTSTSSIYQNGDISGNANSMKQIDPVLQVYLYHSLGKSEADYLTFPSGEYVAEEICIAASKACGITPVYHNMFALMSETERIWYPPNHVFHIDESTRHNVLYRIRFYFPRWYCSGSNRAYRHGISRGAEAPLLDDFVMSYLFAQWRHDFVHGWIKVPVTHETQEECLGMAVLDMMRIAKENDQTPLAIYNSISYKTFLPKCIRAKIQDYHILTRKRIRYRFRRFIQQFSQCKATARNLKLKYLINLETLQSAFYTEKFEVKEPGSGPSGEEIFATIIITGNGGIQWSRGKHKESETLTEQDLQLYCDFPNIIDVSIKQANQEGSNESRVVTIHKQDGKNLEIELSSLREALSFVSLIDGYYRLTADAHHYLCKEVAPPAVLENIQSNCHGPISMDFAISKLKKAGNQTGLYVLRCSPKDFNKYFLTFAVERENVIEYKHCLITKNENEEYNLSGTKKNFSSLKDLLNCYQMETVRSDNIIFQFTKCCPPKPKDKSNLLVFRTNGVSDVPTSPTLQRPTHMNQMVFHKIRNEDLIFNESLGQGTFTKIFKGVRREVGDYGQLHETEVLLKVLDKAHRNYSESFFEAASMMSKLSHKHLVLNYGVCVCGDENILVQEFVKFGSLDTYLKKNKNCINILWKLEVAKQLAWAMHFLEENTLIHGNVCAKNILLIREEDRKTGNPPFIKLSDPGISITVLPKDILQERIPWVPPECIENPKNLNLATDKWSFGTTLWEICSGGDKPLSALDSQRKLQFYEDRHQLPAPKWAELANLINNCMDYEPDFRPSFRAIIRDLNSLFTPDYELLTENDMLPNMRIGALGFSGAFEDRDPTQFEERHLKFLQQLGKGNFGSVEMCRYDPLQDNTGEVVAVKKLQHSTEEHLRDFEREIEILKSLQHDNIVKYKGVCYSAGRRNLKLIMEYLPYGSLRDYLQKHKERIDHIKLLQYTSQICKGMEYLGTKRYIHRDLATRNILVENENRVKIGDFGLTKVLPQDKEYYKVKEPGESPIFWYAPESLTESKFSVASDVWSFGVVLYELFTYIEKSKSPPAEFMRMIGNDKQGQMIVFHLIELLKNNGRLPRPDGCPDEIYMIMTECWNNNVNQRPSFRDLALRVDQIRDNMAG
Method in brief: (§1)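 Human JAK1, JAK2 or TYK2 enzyme was used in 50 mM HEPES, 10 mM MgCl2, 2 mM DTT and 0.01% Brij35, tuned to 10% conversion of a FAM-labelled peptide. Threefold dilutions of compound (top 5 µM, 1% DMSO) were pre-incubated with enzyme for 10 min, and reactions were stopped with EDTA. Phosphorylation was read by microfluidic mobility shift, and IC50 came from percent-inhibition curves.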

Ba/F3-TEL-JAK2 cells = biological target: T3, Ba/F3-TEL-JAK2 cells (Homo sapiens, UniProt O60674); experiment: Anti-proliferative assay, Ba/F3-TEL-JAK2 cells (Cell-Titer Glo); assay type: cell-based; conditions: 72 h, read-out: BaF3-TEL-JAK2 IC50
T3 construct: fused on or other part: Dimerization domain of TEL (ETV6) fused to the JAK2 kinase domain; P41212 (Transcription factor ETV6)
T3 sequence (O60674 whole entry, change not shown, the tested form may be a part): as the sequence (O60674 whole entry) above
Description: (§2) Anti-Proliferative Assay Dimerization domain of Tel protein fused with JAK kinase domain was permanently transduced into Ba/F3 cells, whose proliferation is dependent on JAK activity in the absence of IL-3 induction. These engineered Ba/F3 cells (Ba/F3-FL-TYK2-[…], Ba/F3-TEL-TYK2 and Ba/F3-TEL-JAK2) were used to monitor JAK inhibitory activities of the compounds in the cellular. […] Cells were seeded at 2000/well of white flat bottom 96-well plates. The well containing medium only was used as background control. After 24 h growth, cells were treated with compounds. The test compounds were dissolved in DMSO to a stock concentration of 20 mM. 3-fold serially diluted compounds for 9 concentrations with top concentration of 20 μM was added into the each well. […] The cells continued to grow at 37° C. in 5% CO2 for 72 h after compound treatment. The viability was measured by cellular ATP determination using the Cell-Titer Glo luciferase reagent (Promega). The Luminescence value was recorded by a multi-label reader Envision (PerkinElmer).

TYK2-JH2 domain = biological target: T4, TYK2-JH2 domain (Homo sapiens, UniProt P29597); experiment: Binding activity test for JH2 domain of TYK2 (Tb-antibody/tracer FRET)
T4 construct: IC50 on JH2 domain activity (nM)
T4 sequence (P29597 589-875 limits assumed): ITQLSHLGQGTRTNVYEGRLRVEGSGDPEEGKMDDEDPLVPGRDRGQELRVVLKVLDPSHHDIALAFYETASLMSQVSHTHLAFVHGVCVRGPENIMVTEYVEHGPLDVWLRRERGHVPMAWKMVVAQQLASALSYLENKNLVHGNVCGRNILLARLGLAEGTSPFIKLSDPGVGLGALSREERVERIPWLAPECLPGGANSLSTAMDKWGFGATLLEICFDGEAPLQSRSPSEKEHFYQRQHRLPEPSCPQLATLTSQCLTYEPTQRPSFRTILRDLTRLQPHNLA
Method in brief: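 FRET read-out after 60 min at 25° C plus overnight at 4° C; tracer displacement detected via Tb-labelled antibody on the JH2 domain. Dose-response used 11 points at 3-fold dilution.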

[2] = Plasma protein binding by equilibrium dialysis; assay type: in vitro ADME; conditions: human plasma, equilibrium dialysis 5 hours at 37° C.; read-out: % Bound (human) (converted)
Method in brief: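 Compound spiked into plasma at 0.2 and 2 μM was dialyzed against PBS for 5 h at 37° C with shaking, in duplicate. Plasma and buffer chambers were matrix-matched, protein-precipitated and analysed by LC-MS/MS to derive % unbound, % bound and % recovery.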

Ba/F3-TEL-TYK2 cells = biological target: T5, Ba/F3-TEL-TYK2 cells (Homo sapiens, UniProt P29597); experiment: Anti-proliferative assay, Ba/F3-TEL-TYK2 cells (Cell-Titer Glo); assay type: cell-based; conditions: 72 h, read-out: BaF3-TEL-TYK2 IC50
T5 construct: fused on or other part: Dimerization domain of TEL (ETV6) fused to the TYK2 kinase domain; P41212 (Transcription factor ETV6)
T5 sequence (P29597 whole entry, change not shown, the tested form may be a part): as the sequence (P29597 whole entry P760L) above, with L760P counted along it
Description: as §2

[3] = Microsomal metabolic stability assay; assay type: in vitro ADME; conditions: pH 7.4, 0.5 mg/mL protein, 1 μM compound
Method in brief: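 Parent loss was tracked by LC/MS/MS at 0, 5, 15, 30 and 45 min, with half-life derived from the ln(% remaining)–time slope. Incubation at 37 °C, pH 7.4 phosphate/EDTA buffer: 0.5 mg/mL microsomes, 1 μM compound, NADPH-regenerated (2 mM).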

TYK2 = biological target: T6, TYK2 (Homo sapiens, UniProt P29597); experiment: TYK2 kinase activity, microfluidic assay (Caliper EZ Reader II); assay type: biochemical; conditions: TYK2 1 nM, 1 mM ATP
T6 construct: purchased Carna Biosciences
T6 sequence (P29597 whole entry): as the sequence (P29597 whole entry P760L) above, with L760P counted along it
Method in brief: as §1

JAK1 = biological target: T7, JAK1 (Homo sapiens, UniProt P23458); experiment: JAK1 kinase activity, microfluidic assay (Caliper EZ Reader II); assay type: biochemical; conditions: JAK1 5 nM, 1 mM ATP
T7 construct: purchased Carna Biosciences
T7 sequence (P23458 whole entry): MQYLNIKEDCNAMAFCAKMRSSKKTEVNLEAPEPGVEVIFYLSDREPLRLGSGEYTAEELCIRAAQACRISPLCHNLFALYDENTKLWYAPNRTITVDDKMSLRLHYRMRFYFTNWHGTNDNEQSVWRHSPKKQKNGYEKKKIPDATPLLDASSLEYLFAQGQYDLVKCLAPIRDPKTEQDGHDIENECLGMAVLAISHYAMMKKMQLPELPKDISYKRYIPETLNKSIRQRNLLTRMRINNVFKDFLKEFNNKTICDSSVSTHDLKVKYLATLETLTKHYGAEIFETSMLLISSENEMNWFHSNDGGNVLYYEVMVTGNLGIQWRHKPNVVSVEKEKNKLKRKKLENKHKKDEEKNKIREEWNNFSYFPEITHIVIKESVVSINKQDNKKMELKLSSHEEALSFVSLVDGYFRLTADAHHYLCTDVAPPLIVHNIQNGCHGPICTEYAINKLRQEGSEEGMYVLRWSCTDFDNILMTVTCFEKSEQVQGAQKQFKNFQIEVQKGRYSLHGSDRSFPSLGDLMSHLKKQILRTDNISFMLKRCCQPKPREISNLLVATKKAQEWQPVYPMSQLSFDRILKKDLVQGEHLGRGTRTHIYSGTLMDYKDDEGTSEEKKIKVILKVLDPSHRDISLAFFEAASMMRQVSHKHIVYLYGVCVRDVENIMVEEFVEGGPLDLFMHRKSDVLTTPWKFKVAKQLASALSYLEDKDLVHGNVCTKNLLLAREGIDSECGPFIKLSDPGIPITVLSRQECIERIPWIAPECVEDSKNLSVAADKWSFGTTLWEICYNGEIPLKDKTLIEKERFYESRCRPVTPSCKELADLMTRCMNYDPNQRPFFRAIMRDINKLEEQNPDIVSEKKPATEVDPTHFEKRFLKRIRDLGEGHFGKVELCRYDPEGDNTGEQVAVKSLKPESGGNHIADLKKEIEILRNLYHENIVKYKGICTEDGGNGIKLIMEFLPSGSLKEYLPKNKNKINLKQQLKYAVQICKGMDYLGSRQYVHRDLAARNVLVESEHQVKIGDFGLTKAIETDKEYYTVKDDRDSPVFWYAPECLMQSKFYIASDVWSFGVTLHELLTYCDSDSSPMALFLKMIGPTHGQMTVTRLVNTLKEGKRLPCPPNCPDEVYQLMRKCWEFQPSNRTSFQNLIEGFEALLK
Method in brief: as §1

pSTAT1 [4] = experiment: Phosphorylation inhibition of STAT in human PBMC, IFN-alpha stimulated (flow cytometry); assay type: cell-based; conditions: 20 min, read-out: IC50 on pSTAT1 inhibition in hPBMC
Description: Phosphorylation Inhibition of STAT in Human PBMC and Human Whole Blood Testing:
The inhibitory potential of test articles in human PBMC and human whole blood assay was evaluated by the method of flow cytometry.
IFN-alpha will activate JAK1 and TYK2 kinase in T cells by binding to IFN receptors, and then lead to phosphorylation of STAT1 and STAT2. The phosphorylated STAT1 enter nuclear and promote transcription and expression of IFN-gamma. To evaluate the efficacy of TYK2i in T cells, freshly prepared human PBMC or freshly collected human whole blood will be stimulated with certain unit of human IFN-alpha (Universal Type I IFN(1MU), R&D, 11200-2) for 20 mins in incubator. After stimulation, fix cells with Phosflow™ Fix Buffer I (BD, 557870), and then collect fixed cells by centrifugation (500 g, 8 min). Wash cells once with pre-cooled PBS, and then permeabilize cells with cold Perm Buffer III buffer (BD, 558050) for 45 mins on ice. Collect cells by centrifugation (600 g, 8 min) and washed twice with cold PBS. Stain cells with anti-human CD3 (FITC Mouse Anti-Human CD3, BD, 555332) and anti-pSTAT1_Y701(Alexa Fluor 647 Mouse Anti-Stat1 (pY701), BD, 612597) antibodies. Detect pSTAT1 by flow cytometry (CytoFlex S) and analyze data with FlowJo and GraphPad Prism 8 software. IC50 values of test articles were determined using 4-parameter logistic equation.

pSTAT1 [5] = experiment: Phosphorylation inhibition of STAT in human whole blood, IFN-alpha stimulated (flow cytometry); assay type: cell-based; conditions: 20 min, read-out: IC50 on pSTAT1 inhibition in h WB
Method in brief: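 Readout is pSTAT1 (Y701) in CD3-stained cells by flow cytometry, with IC50 derived from a 4-parameter logistic equation. Fresh human PBMC or fresh whole blood received a 20-min Universal Type I IFN-alpha stimulation before fixation and cold permeabilization.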

[6] = Hepatocytes metabolic stability assay; assay type: in vitro ADME; conditions: cryopreserved hepatocytes, human hepatocytes, 1.0×10^6 cells/mL
Method in brief: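 Cryopreserved hepatocytes (1.0×10^6 cells/mL final) were incubated with test compound at 1 μM at 37 °C and sampled at 0, 15, 30, 60 and 120 min, with acetonitrile quench and LC-MS/MS. k came from log-linear % remaining versus time, giving T1/2 and CLint.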

[7] = dog liver microsomes, read-out: Dog LM Clint
[8] = dog liver microsomes, read-out: Dog LM T½
[9] = human liver microsomes, read-out: Human LM Clint
[10] = human liver microsomes, read-out: Human LM T½
[11] = rat liver microsomes, read-out: Rat LM Clint
[12] = rat liver microsomes, read-out: Rat LM T½
[13] = human PBMC, IFN-alpha 20 mins, CD3 cells
[14] = human whole blood, IFN-alpha 20 mins, CD3 cells

Row | Compound | GI50 [1] [nM] | IC50 (JAK2) [nM] | GI50 (Ba/F3-TEL-JAK2 cells) [nM] | IC50 (TYK2-JH2 domain) [nM] | fraction unbound at 5 h [2] | GI50 (Ba/F3-TEL-TYK2 cells) [nM] | microsomal CLint at 1 μM [3, 7] [µL/min/mg] | half-life at 1 μM [3, 8] [h] | microsomal CLint at 1 μM [3, 9] [µL/min/mg] | half-life at 1 μM [3, 10] [h] | microsomal CLint at 1 μM [3, 11] [µL/min/mg] | half-life at 1 μM [3, 12] [h] | IC50 (TYK2) [nM] | IC50 (JAK1) [nM] | IC50 (pSTAT1 [4]; [13]) [nM] | IC50 (pSTAT1 [5]; [14]) [nM] | CLint scaled at 1 μM ([6]; read-out: Human hepatocyte Clint(liver)) [mL/min/kg] | half-life at 1 μM ([6]; read-out: Human hepatocyte stability T1/2) [h] | IC50 (pSTAT1 [4]; Homo sapiens, PBMC) [nM] | IC50 (pSTAT1 [5]; Homo sapiens) [nM]
1 | [2H]C([2H])([2H])NC(=O)c1cnc(Nc2cccc(C#N)c2)nc1Nc1cccc(-c2ncn(C)n2)c1OC [Example 19, 2-(3-Cyanoanilino)-4-[2-methoxy-3-(1-methyl-1,2,4-triazol-3-yl)anilino]-N-(trideuteriomethyl)pyrimidine-5-carboxamide] | 34.9 | > 5000 | 4960 | 0.098 | 0.038 | > 20000 | 71.2 | 0.812 | 4.46 | 12.9 | 43.6 | 1.32 | > 5000 | > 5000 | – | – | – | – | – | –
2 | [2H]C([2H])([2H])NC(=O)c1nnc2cc1Nc1cc(cc(-c3ncn(C)n3)c1OC)COCc1cc(F)cc(n1)N2 [Example 71, 19-Fluoro-10-methoxy-N-(methyl-d3)-11-(1-methyl-1H-1,2,4-triazol-3-yl)-15-oxa-2,4,5,8,21-pentaazatetracyclo[15.3.1.1^{3,7}.1^{9,13}]tricosa-1(21),3,5,7(23),9(22),10,12,17,19-nonaene-6-carboxamide] | 48.7 | – | – | – | – | – | 5.63 | 4.1 | 27.4 | 0.843 | 21.9 | 1.05 | – | – | 79.5 | 823 | – | – | – | –
3 | [2H]C([2H])([2H])NC(=O)c1cnc2cc1Nc1cc(cc(-c3ncn(C4CC4)n3)c1OC)COCc1nc(ccc1F)N2 [Example 83, 11-(1-Cyclopropyl-1H-1,2,4-triazol-3-yl)-18-fluoro-10-methoxy-N-(methyl-d3)-15-oxa-2,4,8,21-tetraazatetracyclo[15.3.1.1^{3,7}.1^{9,13}]tricosa-1(20),3,5,7(23),9(22),10,12,17(21),18-nonaene-6-carboxamide] | 38.7 | – | – | – | – | – | 26.7 | 0.866 | < 11.5 | > 2 | < 11.5 | > 2 | – | – | 113 | 1580 | – | – | – | –
4 | [2H]C([2H])([2H])NC(=O)c1cnc(Nc2ccc(F)cn2)cc1Nc1cn(C)c2c(F)cn(CC)c(=O)c12 [Example 125, 4-((5-Ethyl-7-fluoro-1-methyl-4-oxo-4,5-dihydro-1H-pyrrolo[3,2-c]pyridin-3-yl)amino)-6-((5-fluoropyridin-2-yl)amino)-N-(methyl-d3)nicotinamide] | 31.9 | – | – | 1.44 | – | – | – | – | – | – | – | – | – | – | 75.7 | 581 | – | – | – | –
5 | [2H]C([2H])([2H])NC(=O)c1nnc(NC(=O)C2CC2)cc1Nc1csc2ccn(CC)c(=O)c12 [Example 197, 6-(Cyclopropanecarboxamido)-N-(methyl-d3)-4-((5-ethyl-4-oxo-4,5-dihydrothieno[3,2-c]pyridin-3-yl)amino)pyridazine-3-carboxamide] | 54.3 | – | – | – | – | – | 20.8 | 1.11 | 77.7 | 0.298 | 290 | 0.0798 | – | – | 428 | 863 | < 7.35 | > 4 | – | –
6 | [2H]C([2H])([2H])NC(=O)c1nnc(NC(=O)C2CC2)cc1Nc1cn(C)c2ccn(CC)c(=O)c12 [Example 223, 6-(Cyclopropanecarboxamido)-4-((5-ethyl-1-methyl-4-oxo-4,5-dihydro-1H-pyrrolo[3,2-c]pyridin-3-yl)amino)-N-(methyl-d3)pyridazine-3-carboxamide] | 82.7 | – | – | – | – | – | – | – | – | – | – | – | – | – | 43.4 | 376 | – | – | – | –
7 | [2H]C([2H])([2H])NC(=O)c1cnc(NC(=O)C2CC2)cc1Nc1csc2cnn(CC)c(=O)c12 [Example 231, 6-(Cyclopropanecarboxamido)-4-((5-ethyl-4-oxo-4,5-dihydrothieno[2,3-d]pyridazin-3-yl)amino)-N-(methyl-d3)nicotinamide] | 65.9 | – | – | 0.979 | – | – | – | – | – | – | – | – | – | – | – | – | – | – | 3510 | 14400
